Results from patent US9302991B2, “Arylamide derivatives as TTX-S blockers” (RaQualia Pharma Inc., priority 2010, dated 2016).

molecular target: T1, human Nav1.3 channels (Homo sapiens, UniProt Q9NY46); experiment: FRET assay, human Nav1.3 (EFS on FDSS); type: cell-based; settings: HEK293 cells expressing human Nav1.3, read-out: IC50 against Nav1.3
T1 construct: expressed in transfected cells; host or cells: HEK293
Experimental: The inhibitory activities of compounds against voltage gated sodium channels are determined by methodology well known in the art.
The ability of the aryl substituted carboxamide derivatives of the formula (I) to inhibit the NaV1.3, Nav1.7 and Nav1.5 channels is measured by Fluorescence Resonance Energy Transfer (FRET) assay and electrophysiology assay described below.
This screen is used to determine the effects of compounds on human Nav1.3, human Nav1.7, and human Nav1.5 channels, utilising electrical field stimulation (EFS) system in 96-well plate format on FDSS (Hamamatsu Photonics) platform. The change of membrane potential is monitored with FRET dye pair, oxonol (DiSBAC2(3)) and coumarin (CC2-DMPE).
Each HEK293 cells expressing human Nav1.3 channels and HEK293 cells expressing human Nav1.5 channels are grown in T225 flasks, in a 5% CO2 humidified incubator to about 80% confluence. Media composition consists of Dulbecco's Modified Eagle Medium (high glucose), 10% FCS, 100 units/mL Penicillin, 100 microgram/mL Streptomycin and 500 microgram/mL Geneticine.
Protocol: • Seed each cell lines (1×10^5 cells/well) into poly-D-lysine coated 96-well plates prior to experimentation. • Incubate at 37° C. in 5% CO2 for 24 hours. • Wash each well with assay buffer (140 mM NaCl, 4.5 mM KCl, 10 mM D-Glucose, 2 mM CaCl2, 1 mM MgCl2, 10 mM HEPES, pH 7.4 adjusted with NaOH) twice. • Add 1st loading solution containing 10 microM CC2-DMPE and 0.06% Pluronic F-127 in assay buffer. • Incubate the plate at room temperature in dark for 1 hour. • Remove 1st loading solution and added 2nd loading solution containing 15 microM DiSBAC2(3), 0.555 mM VABSC-1 and 0.004% Pluronic F-127 in assay buffer. • Place the plate under the dark at room temperature for 25 minutes. • Add compound solutions into the assay plate. • Set the assay plate in FDSS and placed an EFS device on the plate. • Measure EFS-induced fluorescent response by FDSS.
The data are analyzed and reported as normalized ratios of intensities measured at […]. The process of calculating these ratios is performed as follows:
This analysis is performed using a computerized specific program designed for FDSS generated data. Fluorescence ratio values are plotted using XLfit to determine an IC50 value for each compound.

T1 sequence (Q9NY46 whole entry): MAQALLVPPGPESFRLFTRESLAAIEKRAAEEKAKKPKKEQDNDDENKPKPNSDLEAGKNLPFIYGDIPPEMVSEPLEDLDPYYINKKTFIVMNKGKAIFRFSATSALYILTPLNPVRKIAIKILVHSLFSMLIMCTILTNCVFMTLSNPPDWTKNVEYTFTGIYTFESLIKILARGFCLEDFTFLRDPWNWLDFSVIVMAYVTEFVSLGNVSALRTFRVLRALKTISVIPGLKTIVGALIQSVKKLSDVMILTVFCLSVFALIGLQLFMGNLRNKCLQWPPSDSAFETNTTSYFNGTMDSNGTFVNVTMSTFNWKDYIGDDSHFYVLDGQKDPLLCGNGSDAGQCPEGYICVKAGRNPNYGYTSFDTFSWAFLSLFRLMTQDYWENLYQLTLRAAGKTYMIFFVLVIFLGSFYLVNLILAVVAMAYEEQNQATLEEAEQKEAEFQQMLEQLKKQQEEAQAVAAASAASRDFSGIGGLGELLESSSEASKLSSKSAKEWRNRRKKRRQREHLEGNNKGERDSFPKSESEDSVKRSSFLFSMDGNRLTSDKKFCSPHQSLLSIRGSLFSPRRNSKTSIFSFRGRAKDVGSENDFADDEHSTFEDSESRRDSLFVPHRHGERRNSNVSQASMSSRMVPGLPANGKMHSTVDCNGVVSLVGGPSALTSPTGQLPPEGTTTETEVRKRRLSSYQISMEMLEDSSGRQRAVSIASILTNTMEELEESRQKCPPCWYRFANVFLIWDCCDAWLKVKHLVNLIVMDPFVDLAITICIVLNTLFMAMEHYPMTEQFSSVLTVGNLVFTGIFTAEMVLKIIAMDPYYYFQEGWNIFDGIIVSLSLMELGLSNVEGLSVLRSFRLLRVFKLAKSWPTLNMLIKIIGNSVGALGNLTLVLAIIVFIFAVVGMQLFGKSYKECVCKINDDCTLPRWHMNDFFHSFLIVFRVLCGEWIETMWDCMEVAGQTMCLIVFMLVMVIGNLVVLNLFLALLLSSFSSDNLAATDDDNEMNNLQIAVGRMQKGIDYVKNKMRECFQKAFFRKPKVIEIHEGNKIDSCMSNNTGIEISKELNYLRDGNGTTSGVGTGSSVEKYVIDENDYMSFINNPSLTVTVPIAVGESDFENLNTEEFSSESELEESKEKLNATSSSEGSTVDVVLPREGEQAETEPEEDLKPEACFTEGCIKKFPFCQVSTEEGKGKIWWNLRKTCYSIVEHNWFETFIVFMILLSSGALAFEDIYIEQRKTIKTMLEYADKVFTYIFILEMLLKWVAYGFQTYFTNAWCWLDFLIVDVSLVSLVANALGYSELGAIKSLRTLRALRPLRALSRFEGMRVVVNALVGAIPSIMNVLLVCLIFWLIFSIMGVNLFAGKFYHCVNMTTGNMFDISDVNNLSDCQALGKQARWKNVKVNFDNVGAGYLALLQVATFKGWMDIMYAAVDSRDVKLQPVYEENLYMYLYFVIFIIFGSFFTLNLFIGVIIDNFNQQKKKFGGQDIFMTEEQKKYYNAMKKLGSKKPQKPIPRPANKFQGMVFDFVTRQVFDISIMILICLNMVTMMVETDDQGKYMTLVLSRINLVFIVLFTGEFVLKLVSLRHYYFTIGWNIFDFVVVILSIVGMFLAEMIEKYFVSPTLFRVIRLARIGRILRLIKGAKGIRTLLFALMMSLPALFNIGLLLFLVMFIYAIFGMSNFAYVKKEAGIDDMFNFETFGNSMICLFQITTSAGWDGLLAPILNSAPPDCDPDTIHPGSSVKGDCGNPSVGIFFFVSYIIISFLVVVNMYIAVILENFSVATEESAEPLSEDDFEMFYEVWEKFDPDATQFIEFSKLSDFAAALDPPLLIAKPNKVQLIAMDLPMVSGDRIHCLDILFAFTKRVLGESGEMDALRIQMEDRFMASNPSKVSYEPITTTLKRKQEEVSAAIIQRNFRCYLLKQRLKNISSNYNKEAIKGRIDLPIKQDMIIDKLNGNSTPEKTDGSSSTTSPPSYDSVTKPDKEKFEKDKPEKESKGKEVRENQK

SMILES | IC50
CCC(=O)Nc1cc(C(=O)NCc2cc(C)cc(OC(F)(F)F)c2)ccn1 [Example 598, N-(3-methyl-5-(trifluoromethoxy)benzyl)-2-propionamidoisonicotinamide] | < 1000 nM
Cc1cc(CNC(=O)c2ccnc(NC(=O)C3CC3)c2)cc(OC(F)(F)F)c1 [Example 599, 2-(cyclopropanecarboxamido)-N-(3-methyl-5-(trifluoromethoxy)benzyl)isonicotinamide] | < 1000 nM
Cc1cc(CNC(=O)c2ccnc(NC(=O)C3CC3)n2)cc(OC(F)(F)F)c1 [Example 604, 2-(cyclopropanecarboxamido)-N-(3-methyl-5-(trifluoromethoxy)benzyl)pyrimidine-4-carboxamide] | < 1000 nM
CCC(=O)Nc1cc(C(=O)NCc2cc(OC(F)(F)F)ccc2F)ccn1 [Example 607, N-(2-fluoro-5-(trifluoromethoxy)benzyl)-2-propionamidoisonicotinamide] | < 1000 nM
O=C(NCc1cc(OC(F)(F)F)ccc1F)c1ccnc(NC(=O)C2CC2)c1 [Example 608] | < 1000 nM
CCC(=O)Nc1cc(C(=O)NCc2cc(OC(F)(F)F)ccc2F)cc(C)n1 [Example 609, N-(2-fluoro-5-(trifluoromethoxy)benzyl)-2-methyl-6-propionamidoisonicotinamide] | < 1000 nM
CCC(=O)Nc1cc(C(=O)NCc2ccc(OCC(F)(F)C(F)(F)F)nc2)ccn1 [Example 639, N-((6-(2,2,3,3,3-pentafluoropropoxy)pyridin-3-yl)methyl)-2-propionamidoisonicotinamide] | < 1000 nM
CC(C)C(=O)Nc1cc(C(=O)NCc2ccc(OCC(F)(F)C(F)(F)F)nc2)ccn1 [Example 641, 2-isobutyramido-N-((6-(2,2,3,3,3-pentafluoropropoxy)pyridin-3-yl)methyl)isonicotinamide] | < 1000 nM
O=C(NCc1ccc(COCC(F)(F)F)cc1)c1ccnc(NC(=O)C2CC2)c1 [Example 665, 2-(cyclopropanecarboxamido)-N-(4-((2,2,2-trifluoroethoxy)methyl)benzyl)isonicotinamide] | < 1000 nM
CC(=O)Nc1cc(C(=O)NCc2ccc(Cl)c(C(F)(F)F)c2)ccn1 [Example 682, 2-acetamido-N-(4-chloro-3-(trifluoromethyl)benzyl)isonicotinamide] | < 1000 nM
CCc1cc(CNC(=O)c2ccnc(NC(C)=O)c2)cnc1OCC(F)(F)F [Example 709, 2-acetamido-N-((5-ethyl-6-(2,2,2-trifluoroethoxy)pyridin-3-yl)methyl)isonicotinamide] | < 1000 nM
CCC(=O)Nc1cc(C(=O)NCc2cnc(OCC(F)(F)F)c(CC)c2)ccn1 [Example 710, N-((5-ethyl-6-(2,2,2-trifluoroethoxy)pyridin-3-yl)methyl)-2-propionamidoisonicotinamide] | < 1000 nM
CCc1cc(CNC(=O)c2ccnc(NC(=O)C3CC3)c2)cnc1OCC(F)(F)F [Example 711, 2-(cyclopropanecarboxamido)-N-((5-ethyl-6-(2,2,2-trifluoroethoxy)pyridin-3-yl)methyl)isonicotinamide] | < 1000 nM
CCc1cc(CNC(=O)c2ccnc(NC(=O)C(C)C)c2)cnc1OCC(F)(F)F [Example 712, N-((5-ethyl-6-(2,2,2-trifluoroethoxy)pyridin-3-yl)methyl)-2-isobutyramidoisonicotinamide] | < 1000 nM
CCc1cc(CNC(=O)c2cc(C)nc(NC(C)=O)c2)cnc1OCC(F)(F)F [Example 713, 2-acetamido-N-((5-ethyl-6-(2,2,2-trifluoroethoxy)pyridin-3-yl)methyl)-6-methylisonicotinamide] | < 1000 nM
CCC(=O)Nc1cc(C(=O)NCc2cnc(OCC(F)(F)F)c(CC)c2)cc(C)n1 [Example 714, N-((5-ethyl-6-(2,2,2-trifluoroethoxy)pyridin-3-yl)methyl)-2-methyl-6-propionamidoisonicotinamide] | < 1000 nM
CCc1cc(CNC(=O)c2cc(C)nc(NC(=O)C(C)C)c2)cnc1OCC(F)(F)F [Example 715, N-((5-ethyl-6-(2,2,2-trifluoroethoxy)pyridin-3-yl)methyl)-2-isobutyramido-6-methylisonicotinamide] | < 1000 nM

SMILES | IC50
CCc1cc(CNC(=O)c2ccnc(NC(=O)C3CC3)n2)cnc1OCC(F)(F)F [Example 717, 2-(cyclopropanecarboxamido)-N-((5-ethyl-6-(2,2,2-trifluoroethoxy)pyridin-3-yl)methyl)pyrimidine-4-carboxamide] | < 1000 nM
CCc1cc(CNC(=O)c2cc(C)nc(NC(=O)C3CC3)n2)cnc1OCC(F)(F)F [Example 718, 2-(cyclopropanecarboxamido)-N-((5-ethyl-6-(2,2,2-trifluoroethoxy)pyridin-3-yl)methyl)-6-methylpyrimidine-4-carboxamide] | < 1000 nM
CCC(=O)Nc1cc(C(=O)NCc2ccc(OCC(C)(F)F)nc2)ccn1 [Example 719, N-((6-(2,2-difluoropropoxy)pyridin-3-yl)methyl)-2-propionamidoisonicotinamide] | < 1000 nM
CCC(=O)Nc1cc(C(=O)NCc2ccc(OCC(C)(F)F)nc2)cc(C)n1 [Example 721, N-((6-(2,2-difluoropropoxy)pyridin-3-yl)methyl)-2-methyl-6-propionamidoisonicotinamide] | < 1000 nM
CC(=O)Nc1cc(C(=O)NCc2cnc(OCC(F)(F)F)c(C(F)(F)F)c2)cc(C)n1 [Example 727, 2-acetamido-6-methyl-N-((6-(2,2,2-trifluoroethoxy)-5-(trifluoromethyl)pyridin-3-yl)methyl)isonicotinamide] | < 1000 nM
CC(=O)Nc1cc(C(=O)NCc2cccc(C(F)(F)F)c2F)cc(C)n1 [Example 729, 2-acetamido-N-(2-fluoro-3-(trifluoromethyl)benzyl)-6-methylisonicotinamide] | < 1000 nM
CC(C)C(=O)Nc1cc(C(=O)NCc2cccc(C(F)(F)F)c2F)ccn1 [Example 730, N-(2-fluoro-3-(trifluoromethyl)benzyl)-2-isobutyramidoisonicotinamide] | < 1000 nM
O=C(NCc1cc(C(F)(F)F)cc(C(F)(F)F)c1)c1ccnc(NC(=O)C2CC2)n1 [Example 736, N-(3,5-bis(trifluoromethyl)benzyl)-2-(cyclopropanecarboxamido)pyrimidine-4-carboxamide] | < 1000 nM
CCC(=O)Nc1cc(C(=O)NCc2cnc(OCC(F)F)c(C)c2)ccn1 [Example 738, N-((6-(2,2-difluoroethoxy)-5-methylpyridin-3-yl)methyl)-2-propionamidoisonicotinamide] | < 1000 nM
Cc1cc(CNC(=O)c2ccnc(NC(=O)C3CC3)c2)cnc1OCC(F)F [Example 739, 2-(cyclopropanecarboxamido)-N-((6-(2,2-difluoroethoxy)-5-methylpyridin-3-yl)methyl)isonicotinamide] | < 1000 nM
CCC(=O)Nc1cc(C(=O)NCc2cnc(OCC(F)F)c(C)c2)cc(C)n1 [Example 740, N-((6-(2,2-difluoroethoxy)-5-methylpyridin-3-yl)methyl)-2-methyl-6-propionamidoisonicotinamide] | < 1000 nM
CC(=O)Nc1cc(C(=O)NCc2cnc(OCC(F)F)c(C)c2)cc(C)n1 [Example 742, 2-acetamido-N-((6-(2,2-difluoroethoxy)-5-methylpyridin-3-yl)methyl)-6-methylisonicotinamide] | < 1000 nM
Cc1cc(C(=O)NCc2cnc(OCC(F)F)c(C)c2)cc(NC(=O)C(C)C)n1 [Example 743, N-((6-(2,2-difluoroethoxy)-5-methylpyridin-3-yl)methyl)-2-isobutyramido-6-methylisonicotinamide] | < 1000 nM
CC(=O)Nc1cc(C(=O)NCc2cccc(OC(F)(F)F)c2F)ccn1 [Example 746, 2-acetamido-N-(2-fluoro-3-(trifluoromethoxy)benzyl)isonicotinamide] | < 1000 nM
CCC(=O)Nc1cc(C(=O)NCc2cccc(OC(F)(F)F)c2F)ccn1 [Example 747, N-(2-fluoro-3-(trifluoromethoxy)benzyl)-2-propionamidoisonicotinamide] | < 1000 nM
O=C(NCc1cccc(OC(F)(F)F)c1F)c1ccnc(NC(=O)C2CC2)c1 [Example 748, 2-(cyclopropanecarboxamido)-N-(2-fluoro-3-(trifluoromethoxy)benzyl)isonicotinamide] | < 1000 nM
CCC(=O)Nc1cc(C(=O)NCc2cccc(OC(F)(F)F)c2F)cc(C)n1 [Example 749, N-(2-fluoro-3-(trifluoromethoxy)benzyl)-2-methyl-6-propionamidoisonicotinamide] | < 1000 nM
